{"source": "patent US20220062345A1", "about": "“PHARMACEUTICAL COMPOSITION CONTAINING PROTEIN KINASE C ACTIVATOR-TREATED STEM CELLS OR CULTURE THEREOF FOR PREVENTING OR TREATING AUTOIMMUNE DISEASES” (CORESTEM CO.,LTD., priority 2018, published 2022)", "key": {"PKC-α and δ": {"test_system": "PKC-α and δ", "test": "PKC signaling in MSC by western blot", "type": "cell-based, human", "settings": "PMA treated to MSC, 24 hours", "description": "Cells were lysed in ice using a cell lysis buffer (Cell Signaling Technology, Danvers, Mass., USA). Proteins were obtained by centrifugation at 12,000 rpm for 15 minutes at 4° C. The proteins were quantified using the Bradford reagent, and electrophoresis was performed at 75V with 20 μg of the proteins by using an SDS-polyacrylamide gel. After the SDS-polyacrylamide gel was transferred to a PVDF membrane at 95V for 90 minutes, 5% nonfat dry milk was added to TBS (TTBS) including 0.5% Tween 20 and blocked for 1 hour. After blocking, the membrane was placed in 5% BSA/TTBS including a primary antibody and shaken at 4° C. for one day. […] After washing the membrane with TTBS and reacting the membrane with enhanced chemiluminescence (ECL, Amersham Pharmacia Biotech, Piscataway, N.J., USA), the degree of protein expression was measured using a ChemiDoc™ XRS+ machine (Bio-Rad, CA, USA).\nPMA was treated to MSC, and after 24 hours, proteins were obtained, and signaling was analyzed through western blot (A in FIG. 4). A PKC inhibitor (Go6983, 1 ug/mL) was pre-treated to MSC for 1 hour, and after PMA was treated, proteins were obtained after 24 hours, and signaling was analyzed through western blot (B in FIG. 4). […] Then, the level of IgM in the supernatant was measured by ELISA (C in FIG. 4). The mRNA levels of the surface molecules of the PMA-treated MSCs were analyzed via RT-PCR (D in FIG. 4). […]"}, "B cells": {"test_system": "B cells", "test": "Co-culture of B cells isolated from PBMC with hMSC and ODN, IgM in supernatant by ELISA", "type": "cell-based", "settings": "screening of 20 types of chemicals treated to human MSC", "description": "Human mesenchymal stern cells (MSC) were obtained from hone marrow (BM) cells of human tibiae and femurs. BM cells were cultured in α-MEM medium including 10% fetal bovine serum (FBS), 2 mM L-glutamine, and penicillin/streptomycin under a condition of 37° C. and 5% CO2. Non-adherent cells were removed on day 1, and adhered cells were cultured with medium replenishment every 3 days and used between day 17 and day 20.\nAs substances used for the pretreatment condition for hMSC, PMA (10 ng/mL, 24-hour treatment, Sigma), I3A (10 μg/mL, 24-hour treatment, Sigma), and IFN-γ (10 ng/mL, 7-day treatment, Sigma) were used.\nIFN-γ measurement'as performed according to the test method provided by R&D (#DY285-05), and for IgM, the IgM ELISA kit (eBioscience, Vienna, Austria) was used for measurement. […] Finally, the value was measured at 450 nm to 570 nm.\nAfter B cells (1×10^5 cells/well) isolated from peripheral blood mononuclear cells (PBMC) and PMA-treated hMSC (1×10^3 cells/well) were co-cultured for 72 hours with CpG oligodeoxynucleotides (ODN, 5 μg/mL), the level of IgM in the supernatant was measured by ELISA (A in FIG. 1). T cells (1×10^5 cells/well) isolated from PBMC and PMA-treated hMSCs×10^3 cells/well) were co-cultured for 72 hours with phytohemagglutinin (PHA, 5 ug/mL), and the level of IFN-γ in the supernatant was measured by ELISA (B in FIG. 1). […]"}, "MSC [1]": {"test_system": "MSC", "test": "Chemokines of MSC by RT-PCR and ELISA", "type": "cell-based, human", "settings": "MSC treated with PMA; mRNA (RT-PCR) and protein (ELISA)", "description": "Cells were treated with Trypsin-EDTA (Gibco) at […] at a time point when the confluency of 70% to 80% was reached, followed by culturing under a condition of 5% CO2 and 37° C. After 24 hours of material treatment, the cells were recovered, and the total RNA was isolated from the cells using the TRIZOL reagent (invitrogen, MD, USA), and the total RNA was quantified by absorbance measurement at 260 nm.\nA total RNA concentration of 0.3 μg was used, and it was synthesized at 42° C. for 1 hour and at 95° C. for 5 minutes. Polymerase chain reaction was performed using 3 μL of synthesized cDNA and 10 pM of a primer. […]\n(§1) The expression levels of mRNA for FasL, PD-L1, PD-L2, ICAM1, VCAM1, β-actin, IFN-γ, TNF-α, IL-12, COX-2, iNOS, IDO, TGF-β, CCL2, CCL3, CXCL10, and CXCL12 were analyzed by quantitative real-time PCR (qPCR). The relative mRNA amount of each sample was calculated based on a threshold cycle (Ct) compared to the threshold cycle (Ct) of β-actin, which is a housekeeping gene.\nThe chemokines of MSC were analyzed by RT-PCR (A in FIG. 2) and ELISA (B in FIG. 2) at mRNA and protein levels, respectively. […] The migration of B cells with respect to MSC was measured using a transwell, MSCs were seeded in the lower well, and B cells were seeded in the upper well. […]"}, "MSC [2]": {"test_system": "MSC", "test": "Surface molecules of PMA-treated MSC by RT-PCR and FACS", "type": "cell-based, human", "settings": "PMA treated to MSC, RT-PCR", "description": "as §1\nPMA was treated to MSC, and after 24 hours, proteins were obtained, and signaling was analyzed through western blot (A in FIG. 4). A PKC inhibitor (Go6983, 1 ug/mL) was pre-treated to MSC for 1 hour, and after PMA was treated, proteins were obtained after 24 hours, and signaling was analyzed through western blot (B in FIG. 4). After MSC was pretreated with the PKC inhibitor (Go6983, 1 ug/mL) for 1 hour and PMA was treated, B cells (1×10^5 cells/well) that were isolated from PBMC and PMA-treated MSCs (1×10^3 cells/well) were co-cultured with ODN for 72 hours. Then, the level of IgM in the supernatant was measured by ELISA (C in FIG. 4). The mRNA levels of the surface molecules of the PMA-treated MSCs were analyzed via RT-PCR (D in FIG. 4). The expressions of PD-L1 of the PMA-treated MSC and PD1 of the B cells were analyzed through FACS (E in FIG. 4). After treating the FasL blocking Ab (10 ug/mL) (F) and the PD-L1 blocking Ab (10 ug/mL) (G) to MSCs and adding PMA, MSCs and B cells were cultured with ODN for 72 hours, and then, the IgM level in the supernatant was measured by ELISA. The PMA-treated MSCs were treated with siRNA to confirm […] at the mRNA level via RT-PCR. After the PMA-treated MSCs, in which PD-L1 was knocked down, and B cells were cultured with ODN for 72 hours, the IgM level in the supernatant was measured by ELISA (H in FIG. 4). PMA was treated to the MSCs, and after 24 hours, the total RNA was obtained, and soluble factors were analyzed via RT-PCR (I in FIG. 4)."}}, "data": [{"smiles": "CCCCCCCCCCCCCC(=O)O[C@@H]1[C@@H](C)[C@@]2(O)[C@@H](C=C(CO)C[C@]3(O)C(=O)C(C)=C[C@@H]23)[C@@H]2C(C)(C)[C@]12OC(C)=O", "note": "[PMA, phorbol myristate acetate]", "values": [{"measurement": "PKC-α and δ in the cytoplasm of MSC", "setting": "PKC-α and δ", "value": "transferred to the cell membrane"}, {"measurement": "phosphorylation of ERK in MSC", "setting": "PKC-α and δ", "value": "increased"}, {"measurement": "human B cell function", "setting": "B cells", "value": "inhibits"}, {"measurement": "expression of CXCL10 in MSC", "setting": "MSC [1]", "value": "increased"}, {"measurement": "FasL expression in MSC", "setting": "MSC [2]", "value": "expressed"}, {"measurement": "PD-L2 expression in MSC", "setting": "MSC [2]", "value": "expressed"}, {"measurement": "PD-L1 expression in MSC", "setting": "MSC [2]; FACS", "value": "expressed"}]}]}
